Data set [1] addresses T1, Catechol O-methyltransferase (Homo sapiens, UniProt P21964).
T1 sequence (P21964 whole entry): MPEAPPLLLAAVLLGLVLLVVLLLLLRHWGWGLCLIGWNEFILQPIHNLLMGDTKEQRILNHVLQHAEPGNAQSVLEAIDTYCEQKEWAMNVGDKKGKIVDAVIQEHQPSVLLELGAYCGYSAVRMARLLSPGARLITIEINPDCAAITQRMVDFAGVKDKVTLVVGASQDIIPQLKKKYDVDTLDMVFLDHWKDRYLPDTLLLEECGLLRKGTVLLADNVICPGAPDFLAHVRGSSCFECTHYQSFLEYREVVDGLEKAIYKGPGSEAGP
Kind of data set: Inhibition of recombinant wild-type human COMT expressed in Escherichia coli BL21 using 4-nitrocatechol-Alexa488 as substrate in presence of cofactor SAM preincubated for 1 min followed by substrate addition and measured every 60 sec up to 180 times by fluorescence based microtiter plate reader analysis.

A short description of data set [2]: Solubility of compound. It counts as physicochemical.
A short description of data set [3]: Distribution coefficient, log D of compound in octanol and water at pH 7.4. It counts as physicochemical.

Converted amounts (≈) assume the structure as drawn.

For `Cc1nc(-c2ccccc2)sc1-c1cc[nH]n1`, the IC50 (usually the midpoint of a concentration-inhibition curve) in data set [1] was 24 µM.

For the compound `c1ccc(-c2ncc(-c3cc[nH]n3)s2)cc1`, in data set [1], the IC50 is above 625 µM.

As for `COc1ccc(Cc2cc(-c3sc(C)nc3C)n[nH]2)cc1`, the solubility (as a rule, the concentration that dissolves in the medium under given conditions) in data set [2] was 2 µg/mL (≈ 6.68 µM). Moreover, in data set [3], the logD (usually the decadic logarithm of the distribution of all forms, ionised or not, between an organic phase and buffer at a given pH) stood at 3.7. Moreover, the IC50 in data set [1] came to 1 µM.

In data set [3], `CCc1cc(-c2sc(C)nc2C)n[nH]1` registered a logD of 2.6. In addition, the IC50 in data set [1] amounted to 20 µM.

As for `Cc1nc(C2CC2)c(-c2cc[nH]n2)s1`, the half-maximal inhibitory concentration (IC50) in data set [1] is above 625 µM.

Take `CCc1nc(C)c(-c2cc[nH]n2)s1`: the half-maximal inhibitory concentration (IC50) in data set [1] was 21 µM.

In the case of `Cc1nc(C)c(-c2cc(Cc3ccccc3)[nH]n2)s1`, the solubility in data set [2] was 15 µg/mL (≈ 55.7 µM). Also, the log distribution coefficient (logD) in data set [3] came to 3.6. Besides, in data set [1], the IC50 came to 2 µM.

In data set [2], `COc1ccc([C@H](C)c2cc(-c3sc(C)nc3C)n[nH]2)cc1` displayed a solubility of 5 µg/mL (≈ 16 µM). For the same compound, the log distribution coefficient (logD) in data set [3] came out at 3.9. In data set [1], the IC50 was 0.86 µM.

For `CCC(c1ccccc1)c1cc(-c2sc(C)nc2C)n[nH]1` (stereo not given), the concentration in solution in data set [2] (solubility) came to 24 µg/mL (≈ 80.7 µM). In data set [3], this compound showed a logD of 4.3. The IC50 in data set [1] came to 21 µM.

Consider `Cc1nc(C)c(-c2cc(-c3ccccc3)[nH]n2)s1`, for which the IC50 in data set [1] was found to be 130 µM.

`Cc1nc(C)c(-c2cc([C@H](C)c3ccccc3)[nH]n2)s1` yielded a solubility in data set [2] of 5 µg/mL (≈ 17.6 µM). The compound further returned a logD in data set [3] of 4. Moreover, the IC50 in data set [1] came out at 0.7 µM.

In the case of `Cc1nc(Cc2ccccc2)sc1-c1cc[nH]n1`, the IC50 in data set [1] is above 425 µM.

On to `Cc1nc(C)c(-c2cc([C@@H](C)c3ccccc3)[nH]n2)s1`, for which the IC50 in data set [1] turned out to be 1.1 µM.

In data set [2], `COc1ccc(C2(c3cc(-c4sc(C)nc4C)n[nH]3)CC2)cc1` returned a solubility of 2 µg/mL (≈ 6.15 µM). Further, the pH-dependent lipophilicity (logD) in data set [3] turned out to be 4.1. For the same compound, in data set [1], the half-inhibitory concentration (IC50) was 0.075 µM.

As for `Cc1ccc(-c2nc(C)c(-c3cc[nH]n3)s2)cc1`, the IC50 in data set [1] came out at 11 µM.

The compound `Cc1nc(C)c(-c2cc(C3(c4ccccc4)CC3)[nH]n2)s1` showed a solubility in data set [2] of 1 µg/mL (≈ 3.39 µM). This compound had a logD in data set [3] of 4.2. For the same compound, the IC50 in data set [1] worked out at 0.21 µM.

In data set [2], `Cc1nc(C)c(-c2cc(Cc3ccc(-c4cnn(C)c4)cc3)[nH]n2)s1` yielded a solubility of 4 µg/mL (≈ 11.4 µM). This compound also showed a logD in data set [3] of 3.9. Moreover, the 50% inhibitory concentration (IC50) in data set [1] was 1.3 µM.

In data set [2], `Cc1nc(C)c(-c2cc(C(C)c3ccccc3)[nH]n2)s1` (stereo not given) gave a solubility of 3 µg/mL (≈ 10.6 µM). Also, the pH-dependent lipophilicity (logD) in data set [3] came out at 3.9. In addition, in data set [1], the IC50 is 0.9 µM.

In the case of `Cc1nc(C)c(-c2cc(Cc3ccc(-c4ccccc4)cc3)[nH]n2)s1`, the IC50 in data set [1] came out at 3.2 µM.

The compound `Cc1nc(C)c(-c2cc(CCc3ccccc3)[nH]n2)s1` returned a solubility in data set [2] of 4 µg/mL (≈ 14.1 µM). Further, the logD in data set [3] came to 4. In addition, the IC50 in data set [1] turned out to be 8 µM.

Compound `Cc1nc(C)c(-c2cc(C(C)(C)c3ccccc3)[nH]n2)s1` had a solubility in data set [2] of 4 µg/mL (≈ 13.4 µM). This compound returned a pH-dependent lipophilicity (logD) in data set [3] of 4.1. Further, the concentration for half-maximal inhibition (IC50) in data set [1] worked out at 1.1 µM.

For the compound `COc1ccc([C@@H](C)c2cc(-c3sc(C)nc3C)n[nH]2)cc1`, the solubility in data set [2] came to 5 µg/mL (≈ 16 µM). Moreover, the logD in data set [3] was 4. In addition, the concentration for half-maximal inhibition (IC50) in data set [1] came out at 0.47 µM.

For `Cc1nc(C)c(-c2cc(CCCc3ccccc3)[nH]n2)s1`, the concentration in solution in data set [2] (solubility) was 8 µg/mL (≈ 26.9 µM). Also, the logD in data set [3] was found to be 4.4. Also, the IC50 in data set [1] stood at 34 µM.

The record behind these values is ChEMBL document CHEMBL4673202, “Design of Potent and Druglike Nonphenolic Inhibitors for Catechol O-Methyltransferase Derived from a Fragment Screening Approach Targeting the S-Adenosyl-l-methionine Pocket” (J Med Chem, 2016).
